Where two headings read alike, the source gives them in different places.
Molecular target: human NaV 1.8 (Homo sapiens, UniProt Q9Y5Y9)
Assay: E-VIPR assay detecting and measuring NaV inhibition properties
Format: cell-based
Conditions: HEK cells expressing truncated human NaV 1.8
In short: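 Membrane potential was followed by coumarin/oxonol FRET during electrical field stimulation of matrigel-seeded HEK cells carrying truncated human NaV1.8 plus KIR2.1. Dosing used 11 points, 3-fold steps, top 300 nM final, 0.625% DMSO, with or without 25% human serum.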

[1] = no human serum, read-out: IC50 in the E-VIPR Assay
[2] = in the presence of human serum (compound numbers followed by *), read-out: IC50 in the E-VIPR Assay, performed in the presence of human serum

Chain of human NaV 1.8 (Q9Y5Y9 126-399 limits assumed): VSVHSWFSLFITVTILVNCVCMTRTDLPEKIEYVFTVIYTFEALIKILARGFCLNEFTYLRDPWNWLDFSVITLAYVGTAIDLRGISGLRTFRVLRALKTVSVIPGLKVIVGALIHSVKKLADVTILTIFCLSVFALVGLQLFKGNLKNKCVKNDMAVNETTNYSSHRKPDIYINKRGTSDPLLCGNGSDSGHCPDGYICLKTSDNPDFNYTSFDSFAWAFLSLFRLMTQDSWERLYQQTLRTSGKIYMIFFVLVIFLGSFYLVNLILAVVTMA
Chain of human NaV 1.8 (Q9Y5Y9 660-890 limits assumed): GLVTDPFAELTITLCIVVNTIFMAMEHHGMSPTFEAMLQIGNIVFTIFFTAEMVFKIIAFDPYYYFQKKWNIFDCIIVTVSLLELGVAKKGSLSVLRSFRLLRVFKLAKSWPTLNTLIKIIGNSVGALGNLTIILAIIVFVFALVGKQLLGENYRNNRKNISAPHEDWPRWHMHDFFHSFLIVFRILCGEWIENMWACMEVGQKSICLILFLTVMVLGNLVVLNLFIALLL
Chain of human NaV 1.8 (Q9Y5Y9 1148-1722 limits assumed): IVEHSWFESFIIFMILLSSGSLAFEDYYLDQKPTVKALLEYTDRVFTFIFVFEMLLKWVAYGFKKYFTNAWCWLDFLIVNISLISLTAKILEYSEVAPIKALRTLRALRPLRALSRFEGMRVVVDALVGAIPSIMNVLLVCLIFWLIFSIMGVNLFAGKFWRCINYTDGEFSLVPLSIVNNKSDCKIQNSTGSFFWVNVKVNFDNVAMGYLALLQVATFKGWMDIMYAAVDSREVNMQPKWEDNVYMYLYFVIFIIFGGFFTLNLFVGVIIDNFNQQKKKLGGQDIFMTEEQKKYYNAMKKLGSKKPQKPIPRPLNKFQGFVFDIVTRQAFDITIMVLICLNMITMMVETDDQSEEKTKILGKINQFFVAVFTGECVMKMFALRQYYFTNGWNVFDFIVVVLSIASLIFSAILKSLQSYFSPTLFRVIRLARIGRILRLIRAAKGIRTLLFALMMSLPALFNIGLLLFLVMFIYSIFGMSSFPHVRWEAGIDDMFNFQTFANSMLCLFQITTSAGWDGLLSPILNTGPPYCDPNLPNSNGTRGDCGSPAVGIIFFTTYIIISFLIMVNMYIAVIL

Row | SMILES | IC50 [1] | IC50 [2]
1 | C[C@H]1[C@@H](c2ccc(F)c(F)c2OCCO)[C@H](C(=O)Nc2ccc3nncn3c2)O[C@@]1(C)C(F)(F)F [Compound 548] | 10 to 100 nM | 
2 | C[C@H]1[C@@H](c2ccc(F)c(F)c2OC(F)F)[C@H](C(=O)Nc2cncc(S(C)(=O)=O)c2)O[C@@]1(C)C(F)(F)F (single isomer, unassigned) [Compound 96] | < 10 nM | 
3 | Cc1nn(C(F)F)cc1NC(=O)[C@@H]1O[C@@](C)(C(F)(F)F)[C@@H](C)[C@H]1c1ccc(F)c(F)c1CN(C)C [Compound 672, (2R,3S,4S,5R)-N-(1-(difluoromethyl)-3-methyl-1H-pyrazol-4-yl)-3-(2-((dimethylamino)methyl)-3,4-difluorophenyl)-4,5-dimethyl-5-(trifluoromethyl)tetrahydrofuran-2-carboxamide] | 10 to 100 nM | 
4 | COc1c([C@H]2[C@H](C(=O)Nc3ccnc(C(O)CO)c3)O[C@@](C)(C(F)(F)F)[C@H]2C)ccc(F)c1C (single isomer, unassigned) [Compound 135] | < 10 nM | 
5 | COc1c([C@H]2[C@H](C(=O)Nc3cnnc(C(O)CO)c3)O[C@@](C)(C(F)(F)F)[C@H]2C)ccc(F)c1F (single isomer, unassigned) [Compound 206, rel-(2R*,3S*,4S*,5R*)-3-(3,4-difluoro-2-methoxyphenyl)-N-(6-(1,2-dihydroxyethyl)pyridazin-4-yl)-4,5-dimethyl-5-(trifluoromethyl)tetrahydrofuran-2-carboxamide] |  | 10 to 100 nM
6 | COc1c([C@H]2[C@H](C(=O)NC3(Cc4ccccc4)CC3)O[C@@](C)(C(F)(F)F)[C@H]2C)ccc(F)c1F [Compound 291, (2R,3S,4S,5R)-N-(1-benzylcyclopropyl)-3-(3,4-difluoro-2-methoxyphenyl)-4,5-dimethyl-5-(trifluoromethyl)tetrahydrofuran-2-carboxamide] | ≥ 1000 nM | 
7 | Cc1nn(C(F)F)cc1NC(=O)[C@@H]1O[C@@](C)(C(F)(F)F)[C@@H](C)[C@H]1c1ccc(F)c(F)c1OCC(=O)N(C)O [Compound 604, (2R,3S,4S,5R)-3-(3,4-difluoro-2-(2-(hydroxy(methyl)amino)-2-oxoethoxy)phenyl)-N-(1-(difluoromethyl)-3-methyl-1H-pyrazol-4-yl)-4,5-dimethyl-5-(trifluoromethyl)tetrahydrofuran-2-carboxamide] | 100 to 1000 nM | 
8 | COc1c([C@@H]2[C@@H](C(=O)Nc3ccc(C(N)=O)nc3)O[C@](C)(C(F)(F)F)[C@@H]2C)cccc1C(F)(F)F (stereo in doubt) [Compound 157, rel-5-((2S,3R,4R,5S)-3-(2-methoxy-3-(trifluoromethyl)phenyl)-4,5-dimethyl-5-(trifluoromethyl)tetrahydrofuran-2-carboxamido)picolinamide] | ≥ 1000 nM | 
9 | COc1c([C@H]2[C@H](C(=O)Nc3cnc4c(c3)CCC4O)O[C@@](C)(C(F)(F)F)[C@H]2C)ccc(F)c1F (single isomer, unassigned) [Compound 17] | 10 to 100 nM | 
10 | COc1cc(F)ccc1C1CC(C)(C(F)(F)F)OC1C(=O)Nc1ccnc(S(C)(=N)=O)c1 (centres unmarked) [Compound 715, 3-(4-fluoro-2-methoxy-phenyl)-5-methyl-N-[2-(methylsulfonimidoyl)-4-pyridyl]-5-(trifluoromethyl)tetrahydrofuran-2-carboxamide] |  | 100 to 1000 nM
11 | COc1c(C2C(C(=O)Nc3cncnc3)OC(C)(C(F)(F)F)C2C)ccc(F)c1F (single isomer, unassigned) [Compound 37, 3-(3,4-difluoro-2-methoxy-phenyl)-4,5-dimethyl-N-pyrimidin-5-yl-5-(trifluoromethyl)tetrahydrofuran-2-carboxamide] | ≥ 1000 nM | 
12 | COc1c([C@H]2[C@H](C(=O)Nc3cn(C4COC4)nc3C)O[C@@](C)(C(F)(F)F)[C@H]2C)ccc(F)c1F (single isomer, unassigned) [Compound 330] | < 10 nM | 
13 | COc1c([C@H]2[C@H](C(=O)Nc3ccnc(N4C(=O)[C@@H]5C[C@H]4CN5)c3)O[C@@](C)(C(F)(F)F)[C@H]2C)ccc(F)c1F [Compound 483, (2R,3S,4S,5R)-3-(3,4-difluoro-2-methoxyphenyl)-4,5-dimethyl-N-(2-((1S,4S)-3-oxo-2,5-diazabicyclo[2.2.1]heptan-2-yl)pyridin-4-yl)-5-(trifluoromethyl)tetrahydrofuran-2-carboxamide] | 10 to 100 nM | 
14 | COCC(c1ccc(NC(=O)[C@@H]2O[C@@](C)(C(F)(F)F)[C@@H](C)[C@H]2c2ccc(F)c(F)c2OC)cn1)N(C)C (single isomer, unassigned) [Compound 426, rel-(2R*,3S*,4S*,5R*)-3-(3,4-difluoro-2-methoxyphenyl)-N-(6-(1-(dimethylamino)-2-methoxyethyl)pyridin-3-yl)-4,5-dimethyl-5-(trifluoromethyl)-tetrahydrofuran-2-carboxamide] | 100 to 1000 nM | 
15 | CNC(CO)c1cc(NC(=O)[C@@H]2O[C@@](C)(C(F)(F)F)[C@@H](C)[C@H]2c2ccc(F)c(F)c2OC)ccn1 (single isomer, unassigned) [Compound 232] | < 10 nM | 
16 | COc1c([C@H]2[C@H](C(=O)Nc3ccnc(C(O)C(F)F)c3)O[C@@](C)(C(F)(F)F)[C@H]2C)ccc(F)c1F (single isomer, unassigned) [Compound 254, rel-(2R*,3S*,4S*,5R*)-N-(2-(2,2-difluoro-1-hydroxyethyl)pyridin-4-yl)-3-(3,4-difluoro-2-methoxyphenyl)-4,5-dimethyl-5-(trifluoromethyl)tetrahydrofuran-2-carboxamide] | < 10 nM | 
17 | COc1nc(C(F)F)ccc1[C@@H]1[C@@H](C(=O)Nc2ccc(C(N)=O)nc2)O[C@](C)(C(F)(F)F)[C@@H]1C (stereo in doubt) [Compound 735, rel-5-((2S,3R,4R,5S)-3-(6-(difluoromethyl)-2-methoxypyridin-3-yl)-4,5-dimethyl-5-(trifluoromethyl)tetrahydrofuran-2-carboxamido)picolinamide] | ≥ 1000 nM | 
18 | Cc1oncc1NC(=O)C1OC(C)(C(F)(F)F)C(C)C1c1ccc(F)c(F)c1OC1CC(O)C1 [Compound 656, (2R,3S,4S,5R)-3-(3,4-difluoro-2-((1S,3R)-3-hydroxycyclobutoxy)phenyl)-4,5-dimethyl-N-(5-methylisoxazol-4-yl)-5-(trifluoromethyl)tetrahydrofuran-2-carboxamide] | 10 to 100 nM | 
19 | COc1c([C@H]2[C@H](C(=O)Nc3ccnc(N4CCN(C)[C@@H](C)C4=O)c3)O[C@@](C)(C(F)(F)F)[C@H]2C)ccc(F)c1F [Compound 476, (2R,3S,4S,5R)-3-(3,4-difluoro-2-methoxyphenyl)-N-(2-((S)-3,4-dimethyl-2-oxopiperazin-1-yl)pyridin-4-yl)-4,5-dimethyl-5-(trifluoromethyl)tetrahydrofuran-2-carboxamide] | 10 to 100 nM | 
20 | Cc1nn(C(F)F)cc1NC(=O)[C@@H]1O[C@@](C)(C(F)(F)F)[C@@H](C)[C@H]1c1ccc(F)c(F)c1CN1CC2(COC2)C1 [Compound 670, (2R,3S,4S,5R)-3-(2-((2-oxa-6-azaspiro[3.3]heptan-6-yl)methyl)-3,4-difluorophenyl)-N-(1-(difluoromethyl)-3-methyl-1H-pyrazol-4-yl)-4,5-dimethyl-5-(trifluoromethyl)tetrahydrofuran-2-carboxamide] | 10 to 100 nM | 
21 | COCCOc1c([C@H]2[C@H](C(=O)Nc3ccnc(N4C(=O)CN(C)C[C@H]4C)c3)O[C@@](C)(C(F)(F)F)[C@H]2C)ccc(F)c1F [Compound 652, (2R,3S,4S,5R)-3-[3,4-difluoro-2-(2-methoxyethoxy)phenyl]-N-[2-[(2R)-2,4-dimethyl-6-oxo-piperazin-1-yl]-4-pyridyl]-4,5-dimethyl-5-(trifluoromethyl)tetrahydrofuran-2-carboxamide] | < 10 nM | 
22 | C[C@@H]1[C@H](c2ccc(F)c(F)c2OC(F)F)[C@@H](C(=O)Nc2ccc(C(N)=O)cc2)O[C@]1(C)C(F)(F)F (stereo in doubt) [Compound 73, rel-(2S,3R,4R,5S)-N-(4-carbamoylphenyl)-3-(2-(difluoromethoxy)-3,4-difluorophenyl)-4,5-dimethyl-5-(trifluoromethyl)tetrahydrofuran-2-carboxamide] | ≥ 1000 nM | 
23 | Cc1nn(C(F)F)cc1NC(=O)[C@@H]1O[C@@](C)(C(F)(F)F)[C@@H](C)[C@H]1c1ccc(F)c(F)c1OCCO [Compound 536, (2R,3S,4S,5R)-3-(3,4-difluoro-2-(2-hydroxyethoxy)phenyl)-N-(1-(difluoromethyl)-3-methyl-1H-pyrazol-4-yl)-4,5-dimethyl-5-(trifluoromethyl)tetrahydrofuran-2-carboxamide] | < 10 nM | 
24 | COc1c([C@H]2[C@H](C(=O)NCC3CNC(=O)C3)O[C@@](C)(C(F)(F)F)[C@H]2C)ccc(F)c1F (stereo partly drawn) [Compound 281, (2R,3S,4S,5R)-3-(3,4-difluoro-2-methoxyphenyl)-4,5-dimethyl-N-((5-oxopyrrolidin-3-yl)methyl)-5-(trifluoromethyl)tetrahydrofuran-2-carboxamide] | 100 to 1000 nM | 
25 | COc1c([C@H]2[C@H](C(=O)Nc3ccc(C(N)=O)nc3)O[C@@](C)(C(F)(F)F)[C@H]2C)ccc(OC(F)F)c1F [Compound 682, 5-((2R,3S,4S,5R)-3-(4-(difluoromethoxy)-3-fluoro-2-methoxyphenyl)-4,5-dimethyl-5-(trifluoromethyl)tetrahydrofuran-2-carboxamido)picolinamide] | < 10 nM | 
26 | COc1c([C@@H]2[C@@H](C(=O)Nc3ccnc(S(=O)(=O)N(C)C)c3)O[C@](C)(C(F)(F)F)[C@@H]2C)ccc(F)c1F (stereo in doubt) [Compound 448, rel-(2S,3R,4R,5S)-3-(3,4-difluoro-2-methoxyphenyl)-N-(2-(N,N-dimethylsulfamoyl)pyridin-4-yl)-4,5-dimethyl-5-(trifluoromethyl)tetrahydrofuran-2-carboxamide] | ≥ 1000 nM | 

Source: patent US20240368135A1 (VERTEX PHARMACEUTICALS INCORPORATED, priority 2021, published 2024)
